PubChem BioAssay AID248 (DTP/NCI, 2004)
Where “and” joins values, the source holds several entries; their conditions need not be identical. Equal values may be shown once. Toxic doses and inconclusive results are not listed.

Test system: L1210 leukemia ip in BDF1 mice, survival T/C
Experiment: NCI In Vivo Anticancer Drug Screen. Data for tumor model L1210 Leukemia (intraperitoneal) in B6D2F1 (BDF1) mice
Conditions: endpoint: mean survival time, higher = longer survival
How it was run: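 Tumor cells were implanted, animals were treated, and survival was followed. The result divides the treated measurement by the vehicle-control measurement.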

[1] = dose: 100.0 mg/kg/injection, schedule: Q01DX001 (ip), vehicle: saline
[2] = dose: 200.0 mg/kg/injection, schedule: Q01DX001 (ip), vehicle: saline
[3] = dose: 400.0 mg/kg/injection, schedule: Q01DX001 (ip), vehicle: saline
[4] = dose: 100.0 mg/kg/injection, schedule: Q04DX003 (ip), vehicle: saline with Tween-80
[5] = dose: 200.0 mg/kg/injection, schedule: Q04DX003 (ip), vehicle: saline with Tween-80
[6] = dose: 400.0 mg/kg/injection, schedule: Q04DX003 (ip), vehicle: saline with Tween-80
[7] = dose: 50.0 mg/kg/injection, schedule: Q01DX001 (ip), vehicle: saline
[8] = dose: 100.0 mg/kg/injection, schedule: Q01DX001 (ip), vehicle: carboxymethylcellulose (CMC)
[9] = dose: 200.0 mg/kg/injection, schedule: Q01DX001 (ip), vehicle: carboxymethylcellulose (CMC)
[10] = dose: 400.0 mg/kg/injection, schedule: Q01DX001 (ip), vehicle: carboxymethylcellulose (CMC)

c1cc[c]([Pb]([c]2ccccc2)([c]2ccccc2)[c]2ccccc2)cc1
T/C (dose: 50.0 mg/kg/injection, schedule: Q04DX002 (ip), vehicle: Klucel (hydroxypropylcellulose) (HPC)): 103 % of control | T/C (dose: 100.0 mg/kg/injection, schedule: Q04DX002 (ip), vehicle: Klucel (hydroxypropylcellulose) (HPC)): 103 % of control | T/C (dose: 200.0 mg/kg/injection, schedule: Q04DX002 (ip), vehicle: Klucel (hydroxypropylcellulose) (HPC)): 113 % of control and 115 % of control | T/C (dose: 400.0 mg/kg/injection, schedule: Q04DX002 (ip), vehicle: Klucel (hydroxypropylcellulose) (HPC)): 101 % of control

CCCCC(CC)COC(=O)CCC(CCC(=O)OCC(CC)CCCC)C(=O)OCC(CC)CCCC (centres undefined)
T/C (dose: 100.0 mg/kg/injection, schedule: Q04DX003 (ip), vehicle: saline sonified): 98 % of control | T/C (dose: 200.0 mg/kg/injection, schedule: Q04DX003 (ip), vehicle: saline sonified): 104 % of control | T/C (dose: 400.0 mg/kg/injection, schedule: Q04DX003 (ip), vehicle: saline sonified): 96 % of control

CC(=O)OCC1OC(N2CCc3ccccc32)C(OC(C)=O)C(OC(C)=O)C1OC(C)=O (centres undefined)
T/C [1]: 103 % of control | T/C [2]: 102 % of control | T/C [3]: 96 % of control

CC(=O)Oc1cc(C(c2ccccc2)c2ccccc2)ccc1N(C(C)=O)S(=O)(=O)c1ccccc1
T/C [4]: 92 % of control | T/C [5]: 88 % of control | T/C [6]: 92 % of control

COc1ccc(C2CCCCCC2OC(=O)c2ccc([N+](=O)[O-])cc2)c(OC)c1OC (centres undefined)
T/C (dose: 100.0 mg/kg/injection, schedule: Q01DX001 (ip), vehicle: other): 96 % of control | T/C (dose: 200.0 mg/kg/injection, schedule: Q01DX001 (ip), vehicle: other): 106 % of control | T/C (dose: 400.0 mg/kg/injection, schedule: Q01DX001 (ip), vehicle: other): 96 % of control

CCCCN(C)N=Nc1ccc(CCCC(=O)OCC)cc1
T/C (dose: 12.5 mg/kg/injection, schedule: Q01DX009 (ip), vehicle: Klucel (hydroxypropylcellulose) (HPC)): 108 % of control | T/C (dose: 20.0 mg/kg/injection, schedule: Q01DX009 (ip), vehicle: saline): 107 % of control | T/C (dose: 25.0 mg/kg/injection, schedule: Q01DX009 (ip), vehicle: Klucel (hydroxypropylcellulose) (HPC)): 106 % of control | T/C (dose: 35.0 mg/kg/injection, schedule: Q01DX009 (ip), vehicle: saline): 121 % of control | T/C (dose: 50.0 mg/kg/injection, schedule: Q01DX009 (ip), vehicle: Klucel (hydroxypropylcellulose) (HPC)): 110 % of control | T/C (dose: 50.0 mg/kg/injection, schedule: Q01DX009 (ip), vehicle: saline): 195 % of control | T/C (dose: 55.0 mg/kg/injection, schedule: Q01DX009 (ip), vehicle: saline): 101 % of control and 109 % of control | T/C (dose: 84.0 mg/kg/injection, schedule: Q01DX009 (ip), vehicle: saline): 107 % of control and 115 % of control | T/C (dose: 100.0 mg/kg/injection, schedule: Q01DX009 (ip), vehicle: Klucel (hydroxypropylcellulose) (HPC)): 123 % of control | T/C (dose: 100.0 mg/kg/injection, schedule: Q01DX009 (ip), vehicle: saline): 101 % of control | T/C (dose: 100.0 mg/kg/injection, schedule: Q04DX003 (ip), vehicle: saline): 119 % of control | T/C (dose: 125.0 mg/kg/injection, schedule: Q01DX009 (ip), vehicle: saline): 114 % of control and 119 % of control

NCCNCCN
T/C [7]: 102 % of control | T/C [1]: 116 % of control | T/C [2]: 104 % of control | T/C [3]: 108 % of control

C[n+]1ccsc1
T/C [4]: 104 % of control | T/C [5]: 103 % of control | T/C [6]: 97 % of control

O=C1c2cc([N+](=O)[O-])ccc2-c2cc(F)ccc21
T/C (dose: 50.0 mg/kg/injection, schedule: Q01DX001 (ip), vehicle: carboxymethylcellulose (CMC)): 104 % of control | T/C [8]: 95 % of control | T/C [9]: 93 % of control | T/C [10]: 90 % of control

CN1CN(c2ccccc2)C2(CCN(CCCC3Cc4ccccc4O3)CC2)C1=O (centres undefined)
T/C (dose: 12.0 mg/kg/injection, schedule: Q01DX001 (ip), vehicle: Klucel (hydroxypropylcellulose) (HPC)): 95 % of control | T/C (dose: 25.0 mg/kg/injection, schedule: Q01DX001 (ip), vehicle: Klucel (hydroxypropylcellulose) (HPC)): 98 % of control | T/C (dose: 50.0 mg/kg/injection, schedule: Q01DX001 (ip), vehicle: Klucel (hydroxypropylcellulose) (HPC)): 96 % of control

Cc1ccc2c(C)c3c(ccc4ccccc43)c[n+]2c1
T/C (dose: 0.36 mg/kg/injection, schedule: Q01DX015 (ip), vehicle: saline): 110 % of control | T/C (dose: 0.55 mg/kg/injection, schedule: Q01DX015 (ip), vehicle: saline): 104 % of control | T/C (dose: 0.83 mg/kg/injection, schedule: Q01DX015 (ip), vehicle: saline): 110 % of control | T/C (dose: 1.25 mg/kg/injection, schedule: Q01DX015 (ip), vehicle: saline): 105 % of control and 112 % of control | T/C (dose: 2.5 mg/kg/injection, schedule: Q01DX015 (ip), vehicle: saline): 103 % of control | T/C (dose: 2.5 mg/kg/injection, schedule: Q04DX003 (ip), vehicle: saline): 101 % of control | T/C (dose: 5.0 mg/kg/injection, schedule: Q01DX001 (ip), vehicle: saline): 94 % of control | T/C (dose: 5.0 mg/kg/injection, schedule: Q01DX015 (ip), vehicle: saline): 111 % of control | T/C (dose: 5.0 mg/kg/injection, schedule: Q04DX003 (ip), vehicle: saline): 95 % of control | T/C (dose: 10.0 mg/kg/injection, schedule: Q01DX001 (ip), vehicle: saline): 96 % of control | T/C (dose: 10.0 mg/kg/injection, schedule: Q01DX015 (ip), vehicle: saline): 110 % of control and 117 % of control | T/C (dose: 10.0 mg/kg/injection, schedule: Q04DX003 (ip), vehicle: saline): 111 % of control | T/C (dose: 20.0 mg/kg/injection, schedule: Q01DX001 (ip), vehicle: saline): 102 % of control | T/C (dose: 20.0 mg/kg/injection, schedule: Q04DX003 (ip), vehicle: saline): 113 % of control

O=NO.[Co].[NH2-].[NH2-].[NH2-].[NH2-].[NH2-]
T/C (dose: 25.0 mg/kg/injection, schedule: Q04DX003 (ip), vehicle: saline): 101 % of control

COC(=O)/C=C/C=C(c1ccccc1)c1ccccc1
T/C [8]: 93 % of control | T/C [9]: 102 % of control | T/C [10]: 102 % of control

Nc1nc(N)c(-c2ccc(Cl)cc2)c(COc2cccc(NC(=O)c3ccc([N+](=O)[O-])cc3)c2)n1
T/C (dose: 100.0 mg/kg/injection, schedule: Q01DX001 (ip), vehicle: Klucel (hydroxypropylcellulose) (HPC)): 104 % of control | T/C (dose: 200.0 mg/kg/injection, schedule: Q01DX001 (ip), vehicle: Klucel (hydroxypropylcellulose) (HPC)): 97 % of control | T/C (dose: 400.0 mg/kg/injection, schedule: Q01DX001 (ip), vehicle: Klucel (hydroxypropylcellulose) (HPC)): 91 % of control

O=C1OCOC1C1OCOC1=O (centres undefined)
T/C (dose: 55.0 mg/kg/injection, schedule: Q01DX Z (ip), vehicle: methylcellulose (MC)): 119 % of control | T/C (dose: 83.0 mg/kg/injection, schedule: Q01DX Z (ip), vehicle: methylcellulose (MC)): 104 % of control | T/C (dose: 125.0 mg/kg/injection, schedule: Q01DX Z (ip), vehicle: methylcellulose (MC)): 111 % of control

[O-][n+]1ccc(N2CCOCC2)cc1
T/C [1]: 100 % of control

CC1=NN(c2ccccc2)C(=O)C1(Br)Br
T/C [4]: 96 % of control

O=P(c1ccccc1)(c1ccccc1)c1ccccc1
T/C [7]: 102 % of control | T/C [1]: 98 % of control | T/C [2]: 98 % of control

CC(C)C1=CC23CCC4C(C)(C(=O)O)CCCC4(C)C2CC1OO3 (centres undefined)
T/C (dose: 100.0 mg/kg/injection, schedule: Q01DX009 (ip), vehicle: saline with Tween-80): 100 % of control | T/C (dose: 200.0 mg/kg/injection, schedule: Q01DX009 (ip), vehicle: saline with Tween-80): 97 % of control | T/C (dose: 400.0 mg/kg/injection, schedule: Q01DX009 (ip), vehicle: saline with Tween-80): 97 % of control

O=C(Nc1ccc(C(=O)Nc2cc(S(=O)(=O)O)cc3cccc(S(=O)(=O)O)c23)cc1)Nc1ccc(C(=O)Nc2cc(S(=O)(=O)O)cc3cccc(S(=O)(=O)O)c23)cc1
T/C (dose: 37.5 mg/kg/injection, schedule: Q04DX003 (ip), vehicle: carboxymethylcellulose (CMC)): 97 % of control | T/C (dose: 75.0 mg/kg/injection, schedule: Q01DX001 (ip), vehicle: carboxymethylcellulose (CMC)): 93 % of control | T/C (dose: 75.0 mg/kg/injection, schedule: Q04DX003 (ip), vehicle: carboxymethylcellulose (CMC)): 101 % of control | T/C (dose: 150.0 mg/kg/injection, schedule: Q01DX001 (ip), vehicle: carboxymethylcellulose (CMC)): 105 % of control | T/C (dose: 150.0 mg/kg/injection, schedule: Q04DX003 (ip), vehicle: carboxymethylcellulose (CMC)): 95 % of control
